How the values were obtained:
Assay in all cases: MIC, liquid turbidimetric microtiter method in brain heart infusion broth
Assay type in all cases: cell-based
[1] = tested on: Enterococcus faecalis MB 5407
Excerpt: (§1) The antibacterial activities of compound (VII) against a panel of aerobic Gram positive and negative bacteria is shown in the following Table. The assay employs a liquid turbidimetric microtiter method for the determination of the minimum inhibitory concentration (MIC) in brain heart infusion broth. […] The MIC is generally not an absolute value but rather a concentration ranged that falls within a two-fold dilution limit. Generally twelve two-fold dilutions of the test compound are employed with the initial concentration set at 128 mcg/ml.

[2] = tested on: Enterococcus faecium MB 5416
Excerpt: as §1

Escherichia coli MB 2884 = tested on: Escherichia coli MB 2884
Excerpt: as §1

Escherichia coli MB 4926 = tested on: Escherichia coli MB 4926
Excerpt: as §1

[3] = tested on: Klebsiella pneumoniae MB 4005
Excerpt: as §1

[4] = tested on: Pseudomonas stutzeri MB 1231
Excerpt: as §1

[5] = tested on: Staphylococcus aureus MB 2865
Excerpt: as §1

[6] = tested on: Staphylococcus epidermidis MB 5414
Excerpt: as §1

[7] = tested on: Staphylococcus haemolyticus MB 5412
Excerpt: as §1

[8] = tested on: Steptococcus viridans CL 2943
Excerpt: as §1

[9] = tested on: Streptococcus agalactiae CL 1343
Excerpt: as §1

[10] = tested on: Streptococcus pneumoniae CL 2883
Excerpt: as §1

[11] = tested on: Streptococcus pyogenes MB 2874
Excerpt: as §1

[12] = tested on: Streptococcus pyogenes MB 5406
Excerpt: as §1

[13] = tested on: Yersinia enterocoltica CL 1598
Excerpt: as §1

With `CC[C@H]1OC(=O)[C@H](C)[C@@H](O[C@H]2C[C@@](C)(OC)[C@@H](O)[C@H](C)O2)[C@H](C)[C@@H](O[C@@H]2O[C@H](C)C[C@H](N(C)C)[C@H]2O)[C@](C)(O)C[C@@H](C)N=C2O[C@@]1(C)[C@H](O)[C@H]2C` [Compound (VII), 9-Deoxo-12-deoxy-9,12-epoxy-8a,9-didehydro-8a-aza-8a-homoerythromycin A] the “MIC Values” [1] was 32 mcg/m, the “MIC Values” [2] was 8 mcg/m and the “MIC Values” (Escherichia coli MB 2884) was 128 mcg/m. For the same compound, the “MIC Values” (Escherichia coli MB 4926) was 8 mcg/m, the “MIC Values” [3] was over 128 mcg/m and the “MIC Values” [4] was 0.5 mcg/m. For the same compound, the “MIC Values” [5] was 16 mcg/m, the “MIC Values” [6] was 32 mcg/m and the “MIC Values” [7] was 8 mcg/m. The “MIC Values” [8] was 16 mcg/m, the “MIC Values” [9] was 1 mcg/m and the “MIC Values” [10] was 0.5 mcg/m. The “MIC Values” [11] was 1 mcg/m, the “MIC Values” [12] was 128 mcg/m and the “MIC Values” [13] was 128 mcg/m.

Reference: EP0508725A1, “Novel process for the preparation of 8a-aza-8a-homoerythromycin cyclic iminoethers” (MERCK & CO. INC., priority 1991, dated 1992)
